Source: patent US10077261B2, “Imidazolin-5-one derivative useful as FASN inhibitors for the treatment of cancer” (Janssen Pharmaceutica NV, priority 2012, dated 2018)

Target: T1, hFASN enzyme (full length) (Homo sapiens, UniProt P49327)
T1 construct: 10 μL hFASN enzyme (full length, 300 ng, purified in house); made in house
Test: Fatty Acid Synthase (FASN) inhibition scintillation proximity assay
Assay type: biochemical
Conditions: for inhibition at 10 µM: read-out: Human FASN % inhibition @ 10 μM, 10 μM test compound; for IC50: read-out: Human FASN pIC50 (converted)
Summary of the method: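 Proximity read-out: hydrophobic ^3H-palmitate formed from ^3H-acetyl-CoA and malonyl-CoA binds streptavidin imaging beads, imaged at 610±20 nm at least 24 h after stopping. Enzyme was in-house purified full-length hFASN, 300 ng, in pH 7.5 phosphate/DTT buffer; compound series 30 μM down to 0.01 μM, normalized to controls, 4-parameter fit.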

T1 sequence (P49327 whole entry): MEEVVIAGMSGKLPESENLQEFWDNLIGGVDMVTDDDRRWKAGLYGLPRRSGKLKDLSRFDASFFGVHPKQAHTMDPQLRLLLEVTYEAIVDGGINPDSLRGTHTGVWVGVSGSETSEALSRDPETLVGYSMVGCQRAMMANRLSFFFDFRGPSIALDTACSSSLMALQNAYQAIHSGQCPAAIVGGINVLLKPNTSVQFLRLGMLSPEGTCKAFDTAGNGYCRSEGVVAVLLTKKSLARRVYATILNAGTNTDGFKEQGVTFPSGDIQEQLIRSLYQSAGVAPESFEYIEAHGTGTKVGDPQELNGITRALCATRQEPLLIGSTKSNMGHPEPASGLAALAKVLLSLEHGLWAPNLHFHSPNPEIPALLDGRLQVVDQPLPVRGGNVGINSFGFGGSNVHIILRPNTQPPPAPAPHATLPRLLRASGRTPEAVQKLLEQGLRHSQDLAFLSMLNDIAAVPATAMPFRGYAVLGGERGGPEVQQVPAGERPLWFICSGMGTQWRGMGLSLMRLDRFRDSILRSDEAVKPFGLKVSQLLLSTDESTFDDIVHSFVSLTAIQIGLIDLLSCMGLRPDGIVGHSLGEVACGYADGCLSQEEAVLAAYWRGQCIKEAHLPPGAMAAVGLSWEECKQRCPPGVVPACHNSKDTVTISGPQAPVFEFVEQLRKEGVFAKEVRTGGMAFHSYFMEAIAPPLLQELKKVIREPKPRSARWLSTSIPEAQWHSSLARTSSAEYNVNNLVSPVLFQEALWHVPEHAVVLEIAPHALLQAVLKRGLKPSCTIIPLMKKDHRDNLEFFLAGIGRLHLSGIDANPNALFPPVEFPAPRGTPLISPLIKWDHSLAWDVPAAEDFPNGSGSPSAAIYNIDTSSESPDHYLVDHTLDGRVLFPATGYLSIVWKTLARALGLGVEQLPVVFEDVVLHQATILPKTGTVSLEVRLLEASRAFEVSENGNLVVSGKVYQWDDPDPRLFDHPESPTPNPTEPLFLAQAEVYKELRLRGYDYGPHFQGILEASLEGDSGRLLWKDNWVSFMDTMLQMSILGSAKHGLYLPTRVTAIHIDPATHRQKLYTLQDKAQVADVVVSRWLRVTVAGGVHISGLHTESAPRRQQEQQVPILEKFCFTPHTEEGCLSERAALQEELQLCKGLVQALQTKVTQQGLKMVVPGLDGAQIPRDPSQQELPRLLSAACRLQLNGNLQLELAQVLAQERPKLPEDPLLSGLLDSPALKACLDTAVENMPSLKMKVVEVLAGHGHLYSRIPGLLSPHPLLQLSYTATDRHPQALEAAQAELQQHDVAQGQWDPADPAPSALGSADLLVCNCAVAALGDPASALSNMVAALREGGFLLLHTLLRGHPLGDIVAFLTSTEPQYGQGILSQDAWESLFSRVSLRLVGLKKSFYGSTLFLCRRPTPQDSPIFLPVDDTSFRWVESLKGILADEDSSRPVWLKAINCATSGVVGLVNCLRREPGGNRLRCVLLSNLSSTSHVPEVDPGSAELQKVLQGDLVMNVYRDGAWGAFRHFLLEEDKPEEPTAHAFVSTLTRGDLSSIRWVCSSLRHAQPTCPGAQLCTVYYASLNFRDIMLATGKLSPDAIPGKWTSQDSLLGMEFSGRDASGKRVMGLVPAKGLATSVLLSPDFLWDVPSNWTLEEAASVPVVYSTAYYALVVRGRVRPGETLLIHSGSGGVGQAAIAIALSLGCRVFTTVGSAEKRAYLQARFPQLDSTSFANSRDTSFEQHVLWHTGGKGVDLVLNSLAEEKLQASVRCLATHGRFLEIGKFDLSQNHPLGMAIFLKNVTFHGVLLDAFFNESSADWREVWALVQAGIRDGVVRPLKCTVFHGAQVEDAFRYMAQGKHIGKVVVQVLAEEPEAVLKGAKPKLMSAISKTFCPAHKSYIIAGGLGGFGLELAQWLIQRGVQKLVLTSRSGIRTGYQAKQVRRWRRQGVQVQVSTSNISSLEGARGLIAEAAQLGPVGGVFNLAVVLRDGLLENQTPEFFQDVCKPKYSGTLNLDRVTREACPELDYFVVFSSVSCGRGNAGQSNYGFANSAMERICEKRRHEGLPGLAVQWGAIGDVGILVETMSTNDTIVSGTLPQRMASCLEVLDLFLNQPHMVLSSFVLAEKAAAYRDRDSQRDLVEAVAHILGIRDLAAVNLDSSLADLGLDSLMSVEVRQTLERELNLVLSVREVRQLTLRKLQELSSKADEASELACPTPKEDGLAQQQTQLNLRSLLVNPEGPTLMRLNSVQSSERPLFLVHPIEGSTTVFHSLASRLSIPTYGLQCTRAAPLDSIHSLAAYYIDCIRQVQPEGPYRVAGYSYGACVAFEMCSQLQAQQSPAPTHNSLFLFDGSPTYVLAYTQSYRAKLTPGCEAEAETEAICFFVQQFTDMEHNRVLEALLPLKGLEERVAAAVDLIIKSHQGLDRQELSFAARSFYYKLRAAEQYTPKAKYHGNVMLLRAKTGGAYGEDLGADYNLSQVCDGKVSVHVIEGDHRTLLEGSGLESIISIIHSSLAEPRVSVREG

inhibition at 10 µM | IC50 | Compound
45.7% | > 10000 nM | CC(C)N1CCC2(CC1)N=C(c1ccc(-c3ccc4c(cnn4C)c3)cc1)N(CC1CN(C(=O)C3CC3)C1)C2=O [compound 169, 3-{[1-(Cyclopropylcarbonyl)azetidin-3-yl]methyl}-8-(1-methylethyl)-2-[4-(1-methyl-1H-indazol-5-yl)phenyl]-1,3,8-triazaspiro[4.5]dec-1-en-4-one]
55.6% | 7940 nM | Cn1ncc2cc(-c3ccc(C4=NC5(CCN(CCO)CC5)C(=O)N4CC4CN(C(=O)C5CC5)C4)cc3)ccc21 [compound 170, 3-{[1-(Cyclopropylcarbonyl)azetidin-3-yl]methyl}-8-(2-hydroxyethyl)-2-[4-(1-methyl-1H-indazol-5-yl)phenyl]-1,3,8-triazaspiro[4.5]dec-1-en-4-one]
107% | 214 nM | Cc1cc2cc(-c3ccc(C4=NC5(CCN(C(=O)C6CC6)CC5)C(=O)N4C[C@@H]4CCN(C(=O)C5CC5)C4)cc3)ccc2o1 [compound 171, 8-(Cyclopropylcarbonyl)-3-{[(3R)-1-(cyclopropylcarbonyl)pyrrolidin-3-yl]methyl}-2-[4-(2-methyl-1-benzofuran-5-yl)phenyl]-1,3,8-triazaspiro[4.5]dec-1-en-4-one]
108% | 251 nM | Cc1cc2cc(-c3ccc(C4=NC5(CCN(C(=O)C(C)C)CC5)C(=O)N4C[C@@H]4CCN(C(=O)C5CC5)C4)cc3)ccc2o1 [compound 172, 3-{[(3R)-1-(Cyclopropylcarbonyl)pyrrolidin-3-yl]methyl}-2-[4-(2-methyl-1-benzofuran-5-yl)phenyl]-8-(2-methylpropanoyl)-1,3,8-triazaspiro[4.5]dec-1-en-4-one]
97% | 380 nM | Cc1cc2cc(-c3ccc(C4=NC5(CCN(CCO)CC5)C(=O)N4C[C@@H]4CCN(C(=O)C5CC5)C4)cc3)ccc2o1 [compound 173, 3-{[(3R)-1-(Cyclopropylcarbonyl)pyrrolidin-3-yl]methyl}-8-(2-hydroxyethyl)-2-[4-(2-methyl-1-benzofuran-5-yl)phenyl]-1,3,8-triazaspiro[4.5]dec-1-en-4-one]
109% | 245 nM | Cc1cc2cc(-c3ccc(C4=NC5(CCN(C(=O)CN(C)C)CC5)C(=O)N4C[C@@H]4CCN(C(=O)C5CC5)C4)cc3)ccc2o1 [compound 174, 3-{[(3R)-1-(Cyclopropylcarbonyl)pyrrolidin-3-yl]methyl}-8-(N,N-dimethylglycyl)-2-[4-(2-methyl-1-benzofuran-5-yl)phenyl]-1,3,8-triazaspiro[4.5]dec-1-en-4-one]
108% | 102 nM | Cc1cc2cc(-c3ccc(C4=NC5(CC5)C(=O)N4CC4CN(C(=O)C5CC5)C4)cc3)ccc2o1 [compound 178, 6-{[1-(Cyclopropylcarbonyl)azetidin-3-yl]methyl}-5-[4-(2-methyl-1-benzofuran-5-yl)phenyl]-4,6-diazaspiro[2.4]hept-4-en-7-one]
59.5% | 6310 nM | Cc1cc2cc(-c3ccc(C4=NC5(CC5)C(=O)N4CC4CN(C(=O)C5CC5)C4)cc3C)ccc2o1 [compound 179, 6-{[1-(Cyclopropylcarbonyl)azetidin-3-yl]methyl}-5-[3-methyl-4-(2-methyl-1-benzofuran-5-yl)phenyl]-4,6-diazaspiro[2.4]hept-4-en-7-one]
101% | 138 nM | Cc1cc(C2=NC3(CC3)C(=O)N2C[C@@H]2CCN(C(=O)C3CC3)C2)ccc1-c1ccc2occc2c1 [compound 180, 5-[4-(1-Benzofuran-5-yl)-3-methylphenyl]-6-{[(3R)-1-(cyclopropylcarbonyl)pyrrolidin-3-yl]methyl}-4,6-diazaspiro[2.4]hept-4-en-7-one]
109% | 123 nM | CC(=O)N1CCC2(CC1)N=C(c1ccc(-c3ccc4sc(C)c(C)c4c3)cc1)N(C[C@@H]1CCN(C(=O)C3CC3)C1)C2=O [compound 181, 8-Acetyl-3-{[(3R)-1-(cyclopropylcarbonyl)pyrrolidin-3-yl]methyl}-2-[4-(2,3-dimethyl-1-benzothiophen-5-yl)phenyl]-1,3,8-triazaspiro[4.5]dec-1-en-4-one]
